Data set [1] concerns male albino mice (Swiss strain). Kind of data set: Acetylcholine induced abdominal constriction (writhe) method. To be noted: gavage. The data set is classed as in vivo, mouse. On the procedure: Ibuprofen (racemic mixture) and ibuprofen (S)-(+) served as reference controls.
The study was conducted at two dose levels viz. 50 mg and 100 mg/kg body weight along with a vehicle control group. At each dose level 10 animals were used. All the doses were expressed as ibuprofen molar equivalents. The doses used as well as the molar equivalents are presented below.
The efficacy in terms of antagonizing effect on acetylcholine induced single writhe at two dose levels—50.0 and 100.0 mg/kg for the three formulations and reference controls are presented below.

In data set [2] the test system is Swiss Albino Mice. To be noted: mouse, in vivo.
Data set [3] relates to Swiss Albino Mice. The data set can be described thus: 28-day chronic toxicity study of ibuprofen esters. To be noted: 28 days; for No of animals survived: 10 animals per group; for Average Change In body Weight / Percentage Change of body weight: surviving animals.
The subject of data set [4] is Spontaneously Hypertensive Rats (SHRs). Kind of data set: Hemodynamics in Spontaneously Hypertensive Rats. The data set is classed as in vivo, rat. How it is done:
ACE inhibitors have been known to be useful in antihypertensive therapy for many years. Some ACE inhibitors are delivered orally as the parent drug (captopril) while others are delivered as pro-drugs in order to obtain clinically useful plasma concentrations. This study provides data on the effect of these various enalapril derivatives on hemodynamics in SHRs when given orally and compared to enalapril.
Briefly, SHRs fitted with right carotid catheters were orally gavaged with 100 mg/kg enalapril or equivalent does of the enalapril derivatives, and the blood pressures were followed continuously up to 3 hours and then a measurement at 24 hours. The animals were conscious throughout the procedure and were placed in a restrainer and hooked up to a pressure transducer and a signal processor. After 3 hours, the animals were placed back into their cage, and blood pressure was finally measured again at 24 hours.

The test system of the next data set is human volunteers. Kind of data set: Analgesic and anti-inflammatory effects of S(+)Ibuprofen-L-Threonine Ester in human volunteers. The data set is classed as in vivo. On the procedure: Determination of the analgesic and anti-inflammatory effects of S(+)Ibuprofen-L-Threonine Ester in three human volunteers was conducted as follows:
Two male, age 49 and 50 having severe headache took 1 capsule containing S(+)Ibuprofen-L-Threonine Ester manufacturing and formulation under GMP conditions. The capsule contents were equivalent to 200 mg of racemic Ibuprofen. Relief from headache was reported after 15 min, and complete absence of any pain from headache was reported at the end of 1 hour, which lasted for another 12 hours.
Two males age 49 and 51 took 1 capsule each containing S(+)IbuprofenL-Threonine ester for arthritic knee pain, which was perceptible. […] Such amolearation of pain was further sustained for another 24 hours.

Data set [5] has as its system fasted male albino rats (Wistar strain). Kind of data set: Gastric mucosal irritation potential of ibuprofen esters. In kind it is in vivo, rat. Particulars: two dose levels, 200 mg and 300 mg/kg.
The test system of a further data set is Patient. The data set can be described thus: Human clinical trial of S(−)Ketorolac-L-Threonine ester (analgesic activity). In kind it is in vivo. To be noted: for analgesic activity and side effects (words): 13 mg twice daily, oral capsules, Hydrochloride. How it is done: S(−)Ketorolac-L-Threonine ester capsules were filled using dextrose as the filler. […] For example, 13 mg of S(−)Ketorolac-L-Threonine ester was roughly equivalent to 13 mg of racemic Ketorolac tromethamine in tablet and/or capsule form.
A patient suffering from severe ankolysing spodolytis, arthritis and other inflammatory joint problems was under treatment with Indomethacin, 25 mg twice daily dose. In order the evaluate the analgesic activity of S(−) Ketorolac-L-Threonine ester, the patient was withdrawn from Indomethacin. After 24 hours, the pain returned and they were administered with 13 mg of S(−) Ketorolac L-Threonine ester, once in the morning and once in the evening. This was repeated for 5 days.
About 3 months later, the same above volunteer repeated the experiment. This time, after they went off the indomethacin, only one dose of 13 mg of S(−) Ketorolac-L-Threonine ester was administered. […] This treatment was continued for another 3 days of two capsules of 13 mg each. On the morning of the 6th day, they were switched back to Indomethacin.

[6] abbreviates: 50.0 mg/kg in terms of Ibuprofen.
Where [7] appears, read: 100.0 mg/kg in terms of Ibuprofen.
[8] abbreviates: 1 capsule equivalent to 200 mg racemic Ibuprofen.

Read-outs that look alike come from different tables or passages of the source.

This note sets out measurements from patent US8173840B2, “Compounds with high therapeutic index” (Signature R&D Holdings, LLC, priority 2003, dated 2012).

`CC(C)Cc1ccc(C(C)C(=O)O)cc1` (racemic) [Ibuprofen (racemic mixture), reference compound]: in data set [1] (setting [6]), the “Number of animals showing absence of single writhe (number of animals per dose = 10), One hour after dosing” value is 4 and the “Number of animals showing absence of single writhe (number of animals per dose = 10), Three hours after dosing” value came to 2. In data set [1] (setting [7]), the “Number of animals showing absence of single writhe (number of animals per dose = 10), One hour after dosing” value worked out at 6 and the “Number of animals showing absence of single writhe (number of animals per dose = 10), Three hours after dosing” value came to 6. Besides, in the data set on Swiss Albino Mice [2] (both), the animals that died was 40%. Besides, the Mortality in the data set on Swiss Albino Mice [2] (female) was 3/5. Moreover, the Mortality in the data set with Swiss Albino Mice [2] (male) is 1/5. For the same compound, in the data set on Swiss Albino Mice [3], the “No of animals survived” value amounted to 6, the “Average Change In body Weight” value is 2.97 gms and the “Percentage Change of body weight” value is on record as 12.54%.

Take `CCOC(=O)[C@H](CCc1ccccc1)N[C@@H](C)C(=O)N1CCC[C@H]1C(=O)O` [Enalapril]: in data set [4] (100 mg/kg oral gavage, at 3 hours and 24 hours), the “reduction of blood pressure” value is listed as “approximately 20%”. In addition, the “arterial blood pressure” value in data set [4] (oral, 100 mg/kg enalapril or equivalent doses) is on record as “reduced arterial blood pressure”.

Regarding `CC(C)Cc1ccc([C@H](C)C(=O)O[C@H](C)[C@H](N)C(=O)O)cc1.Cl` [S-(+)-Ibuprofen-L-threonine ester, 2(S)-Amino-3(R)-[2(S)-(4-isobutyl-phenyl)-propionyloxy]-butyric acid], in the data set on human volunteers (1 capsule), the “amelioration of knee pain sustained for another” value was determined as 24 h. In addition, in the data set with human volunteers (setting [8]), the “absence of headache pain lasted for another” value was 12 h and the “complete absence of any pain from headache reported at the end of” value is 1 h. Also, in the data set on human volunteers (1 capsule equivalent to 200 mg racemic Ibuprofen, two males with severe headache), the “relief from headache reported after” value came to 15 min. Further, in the data set with human volunteers (1 capsule, two males, after 12 hours), the “arthritic knee pain” value is reported as “significant reduction is the pain associated with their right knee”. In addition, in data set [1] (setting [6]), the “Number of animals showing absence of single writhe (number of animals per dose = 10), One hour after dosing” value came to 1 and the “Number of animals showing absence of single writhe (number of animals per dose = 10), Three hours after dosing” value worked out at 0. For the same compound, in data set [1] (setting [7]), the “Number of animals showing absence of single writhe (number of animals per dose = 10), One hour after dosing” value is listed as 3 and the “Number of animals showing absence of single writhe (number of animals per dose = 10), Three hours after dosing” value is recorded as 0. The “irritation of gastric mucosa” value in data set [5] is “significantly and completely non-toxic to GI mucosa in the rats tested”. In addition, in the data set with Swiss Albino Mice [3], the “No of animals survived” value was 10, the “Average Change In body Weight” value is −0.68 gms and the “Percentage Change of body weight” value was −3.61%. Also, the animals that died entry in the data set on Swiss Albino Mice [3] (both sexes) is listed as “none of the animals”. Moreover, in the data set on Swiss Albino Mice [3] (Female), the Mortality entry was “Nil”. For the same compound, in the data set on Swiss Albino Mice [3] (Male), the Mortality result is given as “Nil”.

Regarding “S(−)-Ketorolac L-Threonine Ester, Hydrochloride [S(−) Ketorolac L-Threonine ester]”, the “analgesic activity and side effects (words)” value was “lack of pain, no gastric irritation symptoms, or other side effects” with Patient and “lack of any pain” in the data set on Patient (listed as S(−) Ketorolac-L-Threonine ester). Also, in the data set with Patient (only one dose of 13 mg daily, after the 2nd day), the “analgesic activity” value is listed as “complained of the pain resurfacing”.
